pEC50: −log10 of the molar value.

In this experiment the test system is HCV 1b-377-neo replicon cells. Description: HCV replicon assay, HCV 1b-377-neo replicon cells (1b FRET). In kind it is cell-based, Hepatitis C virus genotype 1b. The following applies: Hepatitis C virus, HCV 1b-377-neo replicon cells; HCV 1b genotype; read-out: EC50 range against HCV 1b (Table 2, Range). The essentials: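 Compounds were tested in genotype 1b subgenomic replicon cells carrying a neomycin marker, alongside a matched replicon line with an NS5A Y2065H substitution that confers resistance to a reference NS5A inhibitor.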
`CCN(CC)[C@H](C)C(=O)N1CCC[C@H]1c1ncc(-c2ccc(-c3ccc(-c4cnc([C@@H]5CCCN5C(=O)[C@H](NC(=O)OC)c5ccccc5)[nH]4)cc3)cc2F)[nH]1` [Example D48, methyl ((1R)-2-((2S)-2-(5-(4′-(2-((2S)-1-(N,N-diethyl-D-alanyl)-2-pyrrolidinyl)-1H-imidazol-5-yl)-3′-fluoro-4-biphenylyl)-1H-imidazol-2-yl)-1-pyrrolidinyl)-2-oxo-1-phenylethyl)carbamate]: the pEC50 was 9.00 to 12.00. Take `CCN(CC)[C@@H](C(=O)N1CCC[C@H]1c1ncc(-c2ccc(-c3ccc(-c4cnc([C@@H]5CCCN5C(=O)[C@@H](NC(=O)OC)C5CC5)[nH]4)c(F)c3)cc2)[nH]1)c1ccccc1` [Example D49, methyl ((1S)-1-cyclopropyl-2-((2S)-2-(5-(4′-(2-((2S)-1-((2R)-2-(diethylamino)-2-phenylacetyl)-2-pyrrolidinyl)-1H-imidazol-5-yl)-3-fluoro-4-biphenylyl)-1H-imidazol-2-yl)-1-pyrrolidinyl)-2-oxoethyl)carbamate]: the pEC50 was 9.00 to 12.00. Take `COC(=O)N[C@H](C(=O)N1CCC[C@H]1c1ncc(-c2ccc(-c3ccc(-c4cnc([C@@H]5CCCN5C(=O)[C@@H](NC(=O)OC)C5CC5)[nH]4)c(F)c3)cc2)[nH]1)C(C)C` [Example D50, methyl ((1S)-1-cyclopropyl-2-((2S)-2-(5-(3-fluoro-4′-(2-((2S)-1-(N-(methoxycarbonyl)-L-valyl)-2-pyrrolidinyl)-1H-imidazol-5-yl)-4-biphenylyl)-1H-imidazol-2-yl)-1-pyrrolidinyl)-2-oxoethyl)carbamate]: the pEC50 was 9.00 to 12.00.

For `COC(=O)N[C@@H](C)C(=O)N1CCC[C@H]1c1ncc(-c2ccc(-c3cc(F)c(-c4cnc([C@@H]5CCCN5C(=O)[C@H](C)NC(=O)OC)[nH]4)cc3F)cc2)[nH]1` [Example D52, methyl ((1S)-2-((2S)-2-(5-(2′5′-difluoro-4′-(2-((2S)-1-(N-(methoxycarbonyl)-L-alanyl)-2-pyrrolidinyl)-1H-imidazol-5-yl)-4-biphenylyl)-1H-imidazol-2-yl)-1-pyrrolidinyl)-1-methyl-2-oxoethyl)carbamate], the pEC50 was 9.00 to 12.00. Take `COC(=O)N[C@@H](C(=O)N1CCC[C@H]1c1ncc(-c2ccc(-c3cc(F)c(-c4cnc([C@@H]5CCCN5C(=O)[C@H](NC(=O)OC)c5ccccc5)[nH]4)cc3F)cc2)[nH]1)c1ccccc1` [Example D53, dimethyl ((2,5-difluoro-4,4′-biphenyldiyl)bis(1H-imidazole-5,2-diyl(2S)-2,1-pyrrolidinediyl((1R)-2-oxo-1-phenyl-2,1-ethanediyl))) biscarbamate]: the pEC50 is 9.00 to 12.00. As for `CCN(CC)[C@@H](C(=O)N1CCC[C@H]1c1ncc(-c2ccc(-c3cc(F)c(-c4cnc([C@@H]5CCCN5C(=O)[C@@H](c5ccccc5)N(CC)CC)[nH]4)cc3F)cc2)[nH]1)c1ccccc1` [Example D54, (1R1′R)-2,2′-((2,5-difluoro-4,4′-biphenyldiyl)bis(1H-imidazole-5,2-diyl(2S)-2,1-pyrrolidinediyl))bis (N,N-diethyl-2-oxo-1-phenylethanamine)], the pEC50 is 9.00 to 12.00.

Regarding `COC(=O)N[C@H](C(=O)N1CCC[C@H]1c1ncc(-c2ccc(-c3ccc(-c4c[nH]c([C@@H]5CCCN5C(=O)[C@@H](NC(=O)OC)C5CC5)n4)c(F)c3)cc2F)[nH]1)C(C)C` [Example D55, methyl ((1S)-1-cyclopropyl-2-((2S)-2-(5-(3,3,-difluoro-4′-(2-((2S)-1-(N-(methoxycarbonyl)-L-valyl)-2-pyrrolidinyl)-1H-imidazol-5-yl)-4-biphenylyl)-1H-imidazol-2-yl)-1-pyrrolidinyl)-2-oxoethyl)carbamate], the pEC50 was 9.00 to 12.00.

As to `COC(=O)N[C@@H](C)C(=O)N1CCC[C@H]1c1ncc(-c2ccc(-c3ccc(-c4cnc([C@@H]5CCCN5C(=O)[C@@H](NC(=O)OC)C(C)C)[nH]4)c(F)c3)cc2F)[nH]1` [Example D57, methyl ((1S)-1-(((2S)-2-(5-(3,3′-difluoro-4′-(2-((2S)-1-(N-(methoxycarbonyl)-L-alanyl)-2-pyrrolidinyl)-1H-imidazol-5-yl)-4-biphenylyl)-1H-imidazol-2-yl)-1-pyrrolidinyl)carbonyl)-2-methylpropyl) carbamate], the pEC50 is 9.00 to 12.00. As for `COC(=O)N[C@H](C(=O)N1CCC[C@H]1c1ncc(-c2ccc(-c3ccc(-c4cnc([C@@H]5CCCN5C(=O)[C@@H](NC(=O)OC)C(C)C)[nH]4)c(F)c3)cc2F)[nH]1)C(C)C` [Example D58, methyl ((1S)-1-(((2S)-2-(5-(3,3′-difluoro-4′-(2-((2S)-1-((2S)-2-((methoxycarbonyl)amino)-3-methylbutanoyl)-2-pyrrolidinyl)-1H-imidazol-5-yl)-4-biphenylyl)-1H-imidazol-2-yl)-1-pyrrolidinyl)carbonyl)-2-methylpropyl) carbamate], the pEC50 is 9.00 to 12.00.

With `CCN(CC)[C@H](C)C(=O)N1CCC[C@H]1c1ncc(-c2ccc(-c3ccc(-c4cnc([C@@H]5CCCN5C(=O)[C@@H](NC(=O)OC)C(C)C)[nH]4)c(F)c3)cc2F)[nH]1` [Example D59, methyl ((1S)-1-(((2S)-2-(5-(4′-(2-((2S)-1-(N,N-diethyl-D-alanyl)-2-pyrrolidinyl)-1H-imidazol-5-yl)-3,3′-difluoro-4-biphenylyl)-1H-imidazol-2-yl)-1-pyrrolidinyl)carbonyl)-2-methylpropyl) carbamate], the pEC50 was 9.00 to 12.00. Under `COC(=O)N[C@H](C(=O)N1CCC[C@H]1c1ncc(-c2ccc(-c3ccc(-c4cnc([C@@H]5CCCN5C(=O)[C@H](NC(=O)OC)c5ccccc5)[nH]4)c(F)c3)cc2F)[nH]1)C(C)C` [Example D60, methyl ((1S)-1-(((2S)-2-(5-(3,3′-difluoro-4′-(2-((2S)-1-((2R)-2-((methoxycarbonyl)amino)-2-phenylacetyl)-2-pyrrolidinyl)-1H-imidazol-5-yl)-4-biphenylyl)-1H-imidazol-2-yl)-1-pyrrolidinyl)carbonyl)-2-methylpropyl) carbamate] stands 9.00 to 12.00; under `COC(=O)N[C@@H](C)C(=O)N1CCC[C@H]1c1ncc(-c2ccc(-c3ccc(-c4cnc([C@@H]5CCCN5C(=O)[C@H](C)NC(=O)OC)[nH]4)c(F)c3)cc2F)[nH]1` [Example D61, methyl ((1S)-2-((2S)-2-(5-(3,3,-difluoro-4′-(2-((2S)-1-(N-(methoxycarbonyl)-L-alanyl)-2-pyrrolidinyl)-1H-imidazol-5-yl)-4-biphenylyl)-1H-imidazol-2-yl)-1-pyrrolidinyl)-1-methyl-2-oxoethyl)carbamate], 9.00 to 12.00; under `COC(=O)N[C@@H](C)C(=O)N1CCC[C@H]1c1ncc(-c2ccc(-c3ccc(-c4cnc([C@@H]5CCCN5C(=O)[C@H](NC(=O)OC)c5ccccc5)[nH]4)c(F)c3)cc2F)[nH]1` [Example D62, methyl ((1R)-2-((2S)-2-(5-(3,3′-difluoro-4′-(2-((2S)-1-(N-(methoxycarbonyl)-L-alanyl)-2-pyrrolidinyl)-1H-imidazol-5-yl)-4-biphenylyl)-1H-imidazol-2-yl)-1-pyrrolidinyl)-2-oxo-1-phenylethyl)carbamate], 9.00 to 12.00. Take `CCN(CC)[C@H](C)C(=O)N1CCC[C@H]1c1ncc(-c2ccc(-c3ccc(-c4cnc([C@@H]5CCCN5C(=O)[C@H](NC(=O)OC)c5ccccc5)[nH]4)c(F)c3)cc2F)[nH]1` [Example D63, methyl ((1R)-2-((2S)-2-(5-(4′-(2-((2S)-1-(N,N-diethyl-D-alanyl)-2-pyrrolidinyl)-1H-imidazol-5-yl)-3,3′-difluoro-4-biphenylyl)-1H-imidazol-2-yl)-1-pyrrolidinyl)-2-oxo-1-phenylethyl)carbamate]: the pEC50 is 9.00 to 12.00. As for `CCN(CC)[C@@H](C(=O)N1CCC[C@H]1c1ncc(-c2ccc(-c3ccc(-c4cnc([C@@H]5CCCN5C(=O)[C@H](NC(=O)OC)c5ccccc5)[nH]4)c(F)c3)cc2F)[nH]1)c1ccccc1` [Example D64, methyl ((1R)-2-((2S)-2-(5-(4′-(2-((2S)-1-((2R)-2-(diethylamino)-2-phenylacetyl)-2-pyrrolidinyl)-1H-imidazol-5-yl)-3,3′-difluoro-4-biphenylyl)-1H-imidazol-2-yl)-1-pyrrolidinyl)-2-oxo-1-phenylethyl)carbamate], the pEC50 was 9.00 to 12.00. Turning to `COC(=O)N[C@H](C(=O)N1CCC[C@H]1c1ncc(-c2ccc(-c3ccc(-c4cnc([C@@H]5CCCN5C(=O)[C@H](NC(=O)OC)c5ccccc5)[nH]4)c(F)c3)cc2F)[nH]1)[C@H](C)OC` [Example D65, methyl ((1S,2R)-1-(((2S)-2-(5-(3,3′-difluoro-4′-(2-((2S)-1-((2R)-2-((methoxyearbonyl)amino)-2-phenylacetyl)-2-pyrrolidinyl)-1H-imidazol-5-yl)-4-biphenylyl)-1H-imidazol-2-yl)-1-pyrrolidinyl)carbonyl)-2-methoxypropyl) carbamate bis(trifluoroacetate)], the pEC50 was 9.00 to 12.00. Under `COC(=O)N[C@H](C(=O)N1CCC[C@H]1c1nc(-c2ccc(-c3ccc(-c4cnc([C@@H]5CCCN5C(=O)[C@H](NC(=O)OC)c5ccccc5)[nH]4)c(F)c3)cc2F)c[nH]1)C1CC1` [Example D66, methyl ((1S)-1-cyclopropyl-2-((2S)-2-(5-(3,3′-difluoro-4′-(2-((2S)-1-((2R)-2-((methoxycarbonyl)amino)-2-phenylacetyl)-2-pyrrolidinyl)-1H-imidazol-5-yl)-4-biphenylyl)-1H-imidazol-2-yl)-1-pyrrolidinyl)-2-oxoethyl)carbamate] stands 9.00 to 12.00; under `COC(=O)N[C@@H](C)C(=O)N1CCC[C@H]1c1nc(-c2cnc(-c3ccc(-c4cnc([C@@H]5CCCN5C(=O)[C@H](C)NC(=O)OC)[nH]4)c(F)c3)nc2)c[nH]1` [Example D67, methyl ((1S)-2-((2S)-2-(5-(2-fluoro-4-(5-(2-((2S)-1-(N-(methoxycarbonyl)-L-alanyl)-2-pyrrolidinyl)-1H-imidazol-5-yl)-2-pyrimidinyl)phenyl)-1H-imidazol-2-yl)-1-pyrrolidinyl)-1-methyl-2-oxoethyl)carbamate], 9.00 to 12.00.

The values above are taken from patent publication US8574563B2 (Bristol-Myers Squibb Company, priority 2006, dated 2013).
